How the values were obtained:
[1] = tested on: alcohol dehydrogenase; assay: Relative equilibrium constants of trapping agents from NADH production by alcohol dehydrogenase after 10 minutes; format: biochemical; conditions: 5 mM trapping agent, 200 mM Glycine pH 9.5, 10 mM NAD, 5 mM ethanol, 125 IU ADH
Description: The relative equilibrium constants for trapping agents are listed below in Table 1. […] The reaction formulation was as follows: […] 5 mM ethanol 5 mM trapping agent 125 IU ADH

[2] = tested on: ADH; assay: Enzymatic oxidation of 65 mM ethanol by ADH/NAD in presence of trapping mixture; format: biochemical; conditions: 650 mM, Tris without alpha-effect amine, or carboxymethoxyamine and borate buffer without primary amine
Description: To a reaction mixture containing 5 IU ADH, 100 mM NAD, pH 9.5 and 65 mM ethanol was added a trapping mixture containing:
50 mM Carboxymethoxyamine, pH 10
A trapping mixture containing:
150 mM Carboxymethoxyamine, pH 10
was substituted for the trap in Example 1.
100 mM Hexanediamine, pH 10
150 mM Allylhydroxylamine, pH 9.8
100 mM Nitrobenzylhydroxylamine, pH 10

[3] = tested on: alcohol dehydrogenase (ADH); conditions: cited from earlier work
[4] = Trapping of aldehyde/ketone oxidation product and alcohol conversion in enzymatic determination of alcohol (general statements); format: biochemical; conditions: diamine alone, without alpha-effect amine
Source text: For reasons which are not well understood at the present time, the use of a combination of alpha-effect and primary amines according to the present invention dramatically increases the aldehyde/ketone trapping capacity of the amine trap, as compared to prior art amine traps consisting essentially of primary amine or of alpha-effect amine. Increases in trapping capacity, as measured by effective inactivation of aldehyde/ketone oxidation product in the reaction mixture, of up to about 100-fold over known prior art traps are typical.
With proper selection of amines, typical substrate conversions of about 100% are obtainable without dilution of the sample alcohol concentrations up to about 150 mM, thus permitting accurate and reliable end-point determinations. Such conversions are obtained by selection of amines for trap efficiency so that accumulation of active oxidation product is avoided. This ensures that a favorable reaction equilibrium is established, and that the catalyzing enzyme is not deactivated by oxidation product; the use of amines in the practice of the invention which tend to deactivate the catalyzing enzyme should, of course, be avoided.

[5] = tested on: alcohol dehydrogenase (ADH); conditions: background statement; cited from earlier work

CCON [Ethylhydroxylamine]
RELATIVE EQUILIBRIUM CONSTANT [1]: 11.8

CON [Methoxyamine]
RELATIVE EQUILIBRIUM CONSTANT [1]: 11.7

NC(CO)(CO)CO [Tris, Tris hydroxyl methylamine methane]
RELATIVE EQUILIBRIUM CONSTANT [1]: .2
Alcohol oxidation, single amine type [2]: did not result in complete alcohol oxidation
Conversion of the alcohol ([3]; ADH confined by semi-permeable membrane, continuous flow): about 18%
Capability of trapping high acetaldehyde concentrations ([3]; Tris by itself, acetaldehyde on the order of 85 mM): not capable by itself of reacting with and removing such high concentrations of acetaldehyde

NOCc1ccccc1 [O-Benzylhydroxylamine]
RELATIVE EQUILIBRIUM CONSTANT [1]: 40.9

NCCCCCCN [1,6-hexanediamine]
Performance as sole trapping agent [4]: very satisfactory results are obtained

CC=O [acetaldehyde]
Acetaldehyde concentration that inhibits alcohol dehydrogenase [5]: greater than 1 mM

NOCC(=O)O [Carboxymethoxyamine]
RELATIVE EQUILIBRIUM CONSTANT [1]: 38.6
Alcohol oxidation, single amine type [2]: did not result in the complete oxidation of the alcohol

C=CCON [Allylhydroxylamine]
RELATIVE EQUILIBRIUM CONSTANT [1]: 25.3

Nitrobenzylhydroxylamine
RELATIVE EQUILIBRIUM CONSTANT [1]: 202.0
